Test results from ChEMBL document CHEMBL1201862, “PubChem BioAssay data set” (2004).
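These data come from cells grown in 96-well plates and exposed to compound for 48 hours at five concentrations. At the GI50, growth is halved.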 The source made the active and inactive calls. Cut-off read from the data, not from the text of the source: active = GI50 up to about 1.1 µM and inactive = higher.

Legend:
Test in all cases: growth of human tumour cells (NCI), 48 h
SF-268 = system: SF-268
SK-MEL-28 = system: SK-MEL-28
MCF7 = system: MCF7
UACC-257 = system: UACC-257
SNB-19 = system: SNB-19
ACHN = system: ACHN
RPMI-8226 = system: RPMI-8226
OVCAR-3 = system: OVCAR-3
SR = system: SR
A549 = system: A549
SF-539 = system: SF-539
Malme-3M = system: Malme-3M
EKVX = system: EKVX
SK-OV-3 = system: SK-OV-3
U-251 = system: U-251
KM12 = system: KM12
SF-295 = system: SF-295
MDA-MB-231 = system: MDA-MB-231
OVCAR-5 = system: OVCAR-5
OVCAR-4 = system: OVCAR-4

Measured: GI50

O=C(O)Cc1c(O)ccc2ccccc12
inactive: SF-268 > 100 µM | SK-MEL-28 > 100 µM | MCF7 > 100 µM | UACC-257 > 100 µM | SNB-19 > 100 µM | ACHN > 100 µM | RPMI-8226 > 100 µM | OVCAR-3 > 100 µM | SR > 100 µM | A549 > 100 µM | SF-539 > 100 µM | Malme-3M > 100 µM | EKVX > 100 µM | SK-OV-3 > 100 µM | U-251 > 100 µM | KM12 > 100 µM | SF-295 > 100 µM | MDA-MB-231 > 100 µM | OVCAR-5 > 100 µM | OVCAR-4 > 100 µM

O=C1Nc2ccccc2/C1=N\c1cccc2ncccc12
inactive: SF-268 67.1 µM | SK-MEL-28 > 100 µM | MCF7 50.5 µM | UACC-257 41 µM | SNB-19 > 100 µM | ACHN > 100 µM | RPMI-8226 36.5 µM | OVCAR-3 63.7 µM | SR 31.6 µM | A549 81.5 µM | SF-539 > 100 µM | Malme-3M > 100 µM | EKVX 19.1 µM | SK-OV-3 26.7 µM | U-251 67.5 µM | KM12 95.1 µM | SF-295 53.3 µM | MDA-MB-231 > 100 µM | OVCAR-5 63 µM | OVCAR-4 68.9 µM

CCOC(=O)CCC(NC(=O)Cc1ccc(Oc2nc3ccccc3nc2-c2ccccc2)cc1)C(=O)OCC (stereo not given)
inactive: SF-268 27 µM | SK-MEL-28 > 100 µM | MCF7 91 µM | UACC-257 > 100 µM | SNB-19 50.6 µM | ACHN > 100 µM | RPMI-8226 > 100 µM | OVCAR-3 96.8 µM | SR > 100 µM | A549 > 100 µM | SF-539 29.9 µM | Malme-3M > 100 µM | EKVX > 100 µM | SK-OV-3 58.6 µM | U-251 75.9 µM | KM12 > 100 µM | SF-295 67.1 µM | MDA-MB-231 > 100 µM | OVCAR-5 > 100 µM | OVCAR-4 56.4 µM

Cc1cccc(/C=N/NC(=S)NCc2ccccn2)n1
inactive: SF-268 20 µM | SK-MEL-28 45.8 µM | MCF7 31.8 µM | UACC-257 41.7 µM | SNB-19 47.5 µM | ACHN 10.4 µM | RPMI-8226 44.6 µM | OVCAR-3 74.5 µM | SR 38.9 µM | A549 27.1 µM | SF-539 23.4 µM | Malme-3M 22.1 µM | EKVX 37.2 µM | SK-OV-3 28.3 µM | U-251 20.7 µM | KM12 40.3 µM | SF-295 27.5 µM | MDA-MB-231 33.5 µM | OVCAR-5 > 77.1 µM | OVCAR-4 > 100 µM

c1cc(-c2ccc(Oc3ccc(-c4ccncc4)cc3)cc2)ccn1
inactive: SF-268 22.6 µM | SK-MEL-28 > 26.7 µM | MCF7 4.26 µM | UACC-257 4.91 µM | SNB-19 6.25 µM | ACHN 9.48 µM | RPMI-8226 1.67 µM | OVCAR-3 6.14 µM | SR 3.15 µM | A549 4.91 µM | SF-539 5.4 µM | Malme-3M 6.82 µM | EKVX 5.53 µM | SK-OV-3 15.3 µM | U-251 4.01 µM | KM12 5.22 µM | SF-295 5.96 µM | MDA-MB-231 18.3 µM | OVCAR-5 29.2 µM | OVCAR-4 5.47 µM

O=c1ssc(Cl)c1Nc1c(Cl)ssc1=O
inactive: SF-268 23.1 µM | SK-MEL-28 28.4 µM | MCF7 24.3 µM | UACC-257 16.5 µM | SNB-19 25.7 µM | ACHN > 40 µM | RPMI-8226 9.08 µM | OVCAR-3 20.5 µM | SR 3.62 µM | A549 21.7 µM | SF-539 25.1 µM | Malme-3M 17.9 µM | EKVX 20.6 µM | SK-OV-3 25.9 µM | U-251 19.5 µM | KM12 17.3 µM | SF-295 41.4 µM | MDA-MB-231 22.3 µM | OVCAR-5 19.4 µM | OVCAR-4 18.2 µM
